pIC50: −log10 of the molar value.
tested on: AGS cells (KRAS G12D), phospho-ERK; experiment: pERK In Cell Western (ICW) assay (Method B), AGS cells; type: cell-based; conditions: Homo sapiens, Table 4, pERK, 3 hours, read-out: ICW-AGS
Method: (§1) pERK ICW is a high throughput screening assay to evaluate the cellular potency of mutant KRAS small molecule inhibitors. KRAS mutant cell lines AGS and GP2D (KRAS^G12D) were purchased from ATCC and maintained respectively in RPMI and DMEM medium supplemented with 10% fetal bovine serum and Penicillin/Streptomycin.
(§2) Cells grown in exponential phase were trypsinized, resuspended in fresh media, and viable cells were counted using a cell counter with Trypan Blue (BioRad TC20). Cells were seeded into 384-well plate (Greiner 781091) at density of 5,000 cells/well for AGS and 10,000 cells/well for GP2D and allowed to grow overnight in a 37° C. CO2 incubator. The next day, compounds were dispensed into wells with a ½ log, 10-point serial dilution and top concentration of […] using Tecan D300e dispenser and incubated for 3 hours in a 37° C. CO2 incubator. Cells were then fixed with paraformaldehyde (Electron Microscopy Sciences, 15710, 4% final concentration) for 30 min, permeabilized with wash buffer (1×PBS+0.1% Triton X-100) for 30 min and blocked with Odyssey blocking buffer (Li—COR 927-70001) for 1 hour, all at room temperature (RT). Phospho-ERK antibody (CST 4370L) was diluted 1:500 in Odyssey blocking+0.2% Tween 20 and incubated with cells overnight at 4° C. The next day, plates were washed 5× with wash buffer, incubated with IRDye 800 CW, Goat anti-Rabbit secondary antibody (Li—COR 926-32211, 1:500) and DRAQ5 (CST 4084L, 1:5,000) diluted in Odyssey blocking+0.2% Tween 20 for 1 hour, washed 5×, and imaged on an Odyssey CLx imaging system.
(§3) For data analysis, signal intensities from 800 (phosphor-ERK) and 700 (DRAQ5) channels were extracted, and phospho-ERK signals were normalized to DRAQ5 signals for each well and percent of DMSO control values were computed. Data were then imported into Graphpad Prism to compute half-maximal inhibitory concentrations (IC50) using a 4-parameter variable slope model. Z-factor for each plate was computed from signals derived from wells treated with either DMSO or […] of Trametinib. AGS pERK ICW (Method B) IC50 (uM) values of selected compounds are depicted in Table 2 with compounds having a value 0.001 uM to 0.01 uM as ++++; >0.01 uM to 0.1 uM as +++; >0.1 uM to 1 uM as ++; 1 uM to 10 uM as + and >10 uM as NA.

`Cc1noc(-c2nn3c(c2Cl)CN(c2nc(OC[C@@]45CCCN4C[C@H](F)C5)nc(N4CC5(CCc6sc(N)c(C#N)c65)C4)c2C#N)CCC3)n1` [Compound 17, 2-amino-1′-[6-[3-chloro-2-(3-methyl-1,2,4-oxadiazol-5-yl)-4,6,7,8-tetrahydropyrazolo[1,5-a][1,4]diazepin-5-yl]-5-cyano-2-[[(2R,8S)-2-fluoro-1,2,3,5,6,7-hexahydropyrrolizin-8-yl]methoxy]pyrimidin-4-yl]spiro[5,6-dihydrocyclopenta[b]thiophene-4,3′-azetidine]-3-carbonitrile] and `Cn1c(-c2nn3c(c2Cl)CN(c2nc(OC[C@@]45CCCN4C[C@H](F)C5)nc(N4CC5(CCc6sc(N)c(C#N)c65)C4)c2C#N)CCC3)nc2ccccc21` [Compound 30] fall in the same range of pIC50: 6.00 to 7.00 for the first, 6.00 to 7.00 for the second.

In the case of `N#Cc1c(N2C[C@H]3CC[C@@H](C2)N3)nc(OC[C@@]23CCCN2C[C@H](F)C3)nc1N1CC2(CCc3sc(N)c(C#N)c32)C1` [Compound 25, 2-amino-1′-[5-cyano-6-(3,8-diazabicyclo[3.2.1]octan-3-yl)-2-[[(2R,8S)-2-fluoro-1,2,3,5,6,7-hexahydropyrrolizin-8-yl]methoxy]pyrimidin-4-yl]spiro[5,6-dihydrocyclopenta[b]thiophene-4,3′-azetidine]-3-carbonitrile], the pIC50 was 7.00 to 8.00.

tested on: GP2D cells (KRAS G12D), phospho-ERK; experiment: pERK In Cell Western (ICW) assay, GP2D cells; type: cell-based; conditions: Table 4, 3 hours
Method: as §1, §2, §3

`Cc1noc(-c2nn3c(c2Cl)CN(c2nc(OC[C@@]45CCCN4C[C@H](F)C5)nc(N4CC5(CCc6sc(N)c(C#N)c65)C4)c2C#N)CCC3)n1` [Compound 17, 2-amino-1′-[6-[3-chloro-2-(3-methyl-1,2,4-oxadiazol-5-yl)-4,6,7,8-tetrahydropyrazolo[1,5-a][1,4]diazepin-5-yl]-5-cyano-2-[[(2R,8S)-2-fluoro-1,2,3,5,6,7-hexahydropyrrolizin-8-yl]methoxy]pyrimidin-4-yl]spiro[5,6-dihydrocyclopenta[b]thiophene-4,3′-azetidine]-3-carbonitrile] and `Cn1c(-c2nn3c(c2Cl)CN(c2nc(OC[C@@]45CCCN4C[C@H](F)C5)nc(N4CC5(CCc6sc(N)c(C#N)c65)C4)c2C#N)CCC3)nc2ccccc21` [Compound 30] fall in the same range of pIC50: 7.00 to 8.00 for the first, 7.00 to 8.00 for the second.

First: N#Cc1c(N2C[C@H]3CC[C@@H](C2)N3)nc(OC[C@@]23CCCN2C[C@H](F)C3)nc1N1CC2(CCc3sc(N)c(C#N)c32)C1 [Compound 25, 2-amino-1′-[5-cyano-6-(3,8-diazabicyclo[3.2.1]octan-3-yl)-2-[[(2R,8S)-2-fluoro-1,2,3,5,6,7-hexahydropyrrolizin-8-yl]methoxy]pyrimidin-4-yl]spiro[5,6-dihydrocyclopenta[b]thiophene-4,3′-azetidine]-3-carbonitrile]
Second: N#Cc1c(N2CC3COCC(C2)N3)nc(OC[C@]23CCCN2C[C@@H](F)C3)nc1N1CC2(CCc3sc(N)c(C#N)c32)C1 [Compound 43, 2-amino-1′-[5-cyano-2-[[(2S,8R)-2-fluoro-1,2,3,5,6,7-hexahydropyrrolizin-8-yl]methoxy]-6-(3-oxa-7,9-diazabicyclo[3.3.1]nonan-7-yl)pyrimidin-4-yl]spiro[5,6-dihydrocyclopenta[b]thiophene-4,3′-azetidine]-3-carbonitrile]
The pIC50 of the first is higher: 8.00 to 9.00 for the first, 6.00 to 7.00 for the second.

`N#Cc1c(N2C[C@H]3CC[C@@H](C2)N3)nc(OCC2(CN3CCOCC3)CC2)nc1N1CC2(C1)SCc1sc(N)c(C#N)c12` [Compound 100, 2-amino-1′-[5-cyano-6-[(1R,5S)-3,8-diazabicyclo[3.2.1]octan-3-yl]-2-[[1-(morpholinomethyl)cyclopropyl]methoxy]pyrimidin-4-yl]spiro[6H-thieno[2,3-c]thiophene-4,3′-azetidine]-3-carbonitrile] and `N#Cc1c(N2C[C@H]3CC[C@@H](C2)N3)nc(OCC2(CN3CCOCC3)CC2)nc1N1CC2(C1)c1c(sc(N)c1C#N)CC2F` (stereo partly drawn) [Compound 101, 2-amino-1′-[5-cyano-6-[(1R,5S)-3,8-diazabicyclo[3.2.1]octan-3-yl]-2-[[1-(morpholinomethyl)cyclopropyl]methoxy]pyrimidin-4-yl]-5-fluoro-spiro[5,6-dihydrocyclopenta[b]thiophene-4,3′-azetidine]-3-carbonitrile] fall in the same range of pIC50: 8.00 to 9.00 for the first, 8.00 to 9.00 for the second.

`N#Cc1c(N2CCCC(=O)CC2)nc(OC[C@@]23CCCN2C[C@H](F)C3)nc1N1CC2(CCc3sc(N)c(C#N)c32)C1` [Compound 49, 2-amino-1′-[5-cyano-2-[[(2R,8S)-2-fluoro-1,2,3,5,6,7-hexahydropyrrolizin-8-yl]methoxy]-6-(4-oxoazepan-1-yl)pyrimidin-4-yl]spiro[5,6-dihydrocyclopenta[b]thiophene-4,3′-azetidine]-3-carbonitrile] and `C[C@@]1(O)CCCN(c2nc(OC[C@@]34CCCN3C[C@H](F)C4)nc(N3CC4(CCc5sc(N)c(C#N)c54)C3)c2C#N)C1` [Compound 27, 2-amino-1′-[5-cyano-2-[[(2R,8S)-2-fluoro-1,2,3,5,6,7-hexahydropyrrolizin-8-yl]methoxy]-6-[(3R)-3-hydroxy-3-methyl-1-piperidyl]pyrimidin-4-yl]spiro[5,6-dihydrocyclopenta[b]thiophene-4,3′-azetidine]-3-carbonitrile] fall in the same range of pIC50: 6.00 to 7.00 for the first, 6.00 to 7.00 for the second.

Compared with `N#Cc1c(N2C[C@H]3CC[C@@H](C2)N3)nc(OCc2ccccc2)nc1N1CC2(CCc3sc(N)c(C#N)c32)C1` [Compound 76, 2-amino-1′-[2-benzyloxy-5-cyano-6-[(1R,5S)-3,8-diazabicyclo[3.2.1]octan-3-yl]pyrimidin-4-yl]spiro[5,6-dihydrocyclopenta[b]thiophene-4,3′-azetidine]-3-carbonitrile], `Cc1n[nH]nc1COc1nc(N2C[C@H]3CC[C@@H](C2)N3)c(C#N)c(N2CC3(CCc4sc(N)c(C#N)c43)C2)n1` [Compound 108] is lower in pIC50: 7.00 to 8.00 for the first, 5.00 to 6.00 for the second.

Compared with `N#Cc1c(N2C[C@H]3CC[C@@H](C2)N3)nc(OC[C@@]23CCCN2C[C@H](F)C3)nc1N1CC2(C1)c1c(sc(N)c1C#N)CC1CC12` (stereo partly drawn) [Compound 99, 2-amino-1′-[5-cyano-6-[(1R,5S)-3,8-diazabicyclo[3.2.1]octan-3-yl]-2-[[(2R,8S)-2-fluoro-1,2,3,5,6,7-hexahydropyrrolizin-8-yl]methoxy]pyrimidin-4-yl]spiro[4a,5,5a,6-tetrahydrocyclopropa[f]benzothiophene-4,3′-azetidine]-3-carbonitrile], `N#Cc1c(N2C[C@H]3CC[C@@H](C2)N3)nc(OCC2(CN3CC[S+]([O-])CC3)CC2)nc1N1CC2(CCc3sc(N)c(C#N)c32)C1` [Compound 71, 2-amino-1′-[5-cyano-6-[(1R,5S)-3,8-diazabicyclo[3.2.1]octan-3-yl]-2-[[1-[(1-oxo-1,4-thiazinan-4-yl)methyl]cyclopropyl]methoxy]pyrimidin-4-yl]spiro[5,6-dihydrocyclopenta[b]thiophene-4,3′-azetidine]-3-carbonitrile] is lower in pIC50: 8.00 to 9.00 for the first, 6.00 to 7.00 for the second. The first is the more potent here.

First: N#Cc1c(N2CCCn3nc(-c4ccccn4)c(Cl)c3C2)nc(OCC2(CN3CCOCC3)CC2)nc1N1CC2(CCc3sc(N)c(C#N)c32)C1 [Compound 75, 2-amino-1′-[6-[3-chloro-2-(2-pyridyl)-4,6,7,8-tetrahydropyrazolo[1,5-a][1,4]diazepin-5-yl]-5-cyano-2-[[1-(morpholinomethyl)cyclopropyl]methoxy]pyrimidin-4-yl]spiro[5,6-dihydrocyclopenta[b]thiophene-4,3′-azetidine]-3-carbonitrile]
Second: N#Cc1c(N2C[C@H]3CC[C@@H](C2)N3)nc(OCC2(CN3CCOCC3)CC2)nc1N1CC2(CSc3sc(N)c(C#N)c32)C1 [Compound 73, 5-amino-1′-[5-cyano-2-[[1-(morpholinomethyl)cyclopropyl]methoxy]-6-[(1R,5S)-3,8-diazabicyclo[3.2.1]octan-3-yl]pyrimidin-4-yl]spiro[2H-thieno[2,3-b]thiophene-3,3′-azetidine]-4-carbonitrile]
The pIC50 of the first is lower: 7.00 to 8.00 for the first, 8.00 to 9.00 for the second.

Work on `CN(C)CC1(COc2nc(N3CCCn4nc(C(=O)N(C)C)c(Cl)c4C3)c(C#N)c(N3CC4(CCCc5sc(N)c(C#N)c54)C3)n2)CC1(F)F` (stereo not drawn) [Compound 96, 5-[6-(2-amino-3-cyano-spiro[6,7-dihydro-5H-benzothiophene-4,3′-azetidine]-1′-yl)-5-cyano-2-[[1-[(dimethylamino)methyl]-2,2-difluoro-cyclopropyl]methoxy]pyrimidin-4-yl]-3-chloro-N,N-dimethyl-4,6,7,8-tetrahydropyrazolo[1,5-a][1,4]diazepine-2-carboxamide] yielded a pIC50 of 7.00 to 8.00.
